According to PubChem BioAssay AID2060625 (Molecular Pharmacology Branch, DTP, NCI, 2025):

test system: 186277-243-T-J2-PDC spheroids with HUVEC/MSC, viability; experiment: Anticancer human tumor 186277-243-T-J2-PDC patient-derived colon adenocarcinoma cell line growth inhibition [CLK]; conditions: second compound 0.316 µM; first compound 0.316 µM; stronger effect = lower value
Summary of the method: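 Patient-derived tumor cells grown as complex spheroids with HUVEC endothelial cells and mesenchymal stem cells, treated with drug combinations. Concentrations descend in half-log steps from near clinical Cmax, or from 10 microM if Cmax unknown.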
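Note: compound exposure lasted seven days before readout; 100% = DMSO vehicle control wells.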

SMILES | viability, T/C [%]
O=c1[nH]cc(F)c(=O)[nH]1 + CNC(=O)c1ccc(Nc2nc(OC3CCCC3)c3c(-c4ccc5nc(C)oc5c4)c[nH]c3n2)c(OC)c1 | 39.4
Nc1ccccc1NC(=O)c1ccc(CNC(=O)OCc2cccnc2)cc1 + CNC(=O)c1ccc(Nc2nc(OC3CCCC3)c3c(-c4ccc5nc(C)oc5c4)c[nH]c3n2)c(OC)c1 | 64.2
CC(Nc1ccc2c(c1)OCCn1cc(N3C(=O)OCC3C(F)F)nc1-2)C(N)=O (configuration not stated) + CNC(=O)c1ccc(Nc2nc(OC3CCCC3)c3c(-c4ccc5nc(C)oc5c4)c[nH]c3n2)c(OC)c1 | 16.9

same assay, conditions: second compound 0.316 µM; first compound 1 µM; stronger effect = lower value

SMILES | viability, T/C [%]
Nc1ccn(C2OC(CO)C(O)C2(F)F)c(=O)n1 (configuration not stated) + CNC(=O)c1ccc(Nc2nc(OC3CCCC3)c3c(-c4ccc5nc(C)oc5c4)c[nH]c3n2)c(OC)c1 | 11.3
O=c1[nH]cc(F)c(=O)[nH]1 + CNC(=O)c1ccc(Nc2nc(OC3CCCC3)c3c(-c4ccc5nc(C)oc5c4)c[nH]c3n2)c(OC)c1 | 41
Nc1ccccc1NC(=O)c1ccc(CNC(=O)OCc2cccnc2)cc1 + CNC(=O)c1ccc(Nc2nc(OC3CCCC3)c3c(-c4ccc5nc(C)oc5c4)c[nH]c3n2)c(OC)c1 | 82.2
CC(Nc1ccc2c(c1)OCCn1cc(N3C(=O)OCC3C(F)F)nc1-2)C(N)=O (configuration not stated) + CNC(=O)c1ccc(Nc2nc(OC3CCCC3)c3c(-c4ccc5nc(C)oc5c4)c[nH]c3n2)c(OC)c1 | 11.4

same assay, conditions: second compound 0.316 µM; first compound 3.16 µM; stronger effect = lower value

SMILES | viability, T/C [%]
Nc1ccn(C2OC(CO)C(O)C2(F)F)c(=O)n1 (configuration not stated) + CNC(=O)c1ccc(Nc2nc(OC3CCCC3)c3c(-c4ccc5nc(C)oc5c4)c[nH]c3n2)c(OC)c1 | 9.88
O=c1[nH]cc(F)c(=O)[nH]1 + CNC(=O)c1ccc(Nc2nc(OC3CCCC3)c3c(-c4ccc5nc(C)oc5c4)c[nH]c3n2)c(OC)c1 | 37.3
Nc1ccccc1NC(=O)c1ccc(CNC(=O)OCc2cccnc2)cc1 + CNC(=O)c1ccc(Nc2nc(OC3CCCC3)c3c(-c4ccc5nc(C)oc5c4)c[nH]c3n2)c(OC)c1 | 23
CC(Nc1ccc2c(c1)OCCn1cc(N3C(=O)OCC3C(F)F)nc1-2)C(N)=O (configuration not stated) + CNC(=O)c1ccc(Nc2nc(OC3CCCC3)c3c(-c4ccc5nc(C)oc5c4)c[nH]c3n2)c(OC)c1 | 10.2

same assay, conditions: second compound 0.316 µM; first compound 10 µM; stronger effect = lower value

SMILES | viability, T/C [%]
Nc1ccn(C2OC(CO)C(O)C2(F)F)c(=O)n1 (configuration not stated) + CNC(=O)c1ccc(Nc2nc(OC3CCCC3)c3c(-c4ccc5nc(C)oc5c4)c[nH]c3n2)c(OC)c1 | 8.65
O=c1[nH]cc(F)c(=O)[nH]1 + CNC(=O)c1ccc(Nc2nc(OC3CCCC3)c3c(-c4ccc5nc(C)oc5c4)c[nH]c3n2)c(OC)c1 | 25.6
Nc1ccccc1NC(=O)c1ccc(CNC(=O)OCc2cccnc2)cc1 + CNC(=O)c1ccc(Nc2nc(OC3CCCC3)c3c(-c4ccc5nc(C)oc5c4)c[nH]c3n2)c(OC)c1 | 3.58
CC(Nc1ccc2c(c1)OCCn1cc(N3C(=O)OCC3C(F)F)nc1-2)C(N)=O (configuration not stated) + CNC(=O)c1ccc(Nc2nc(OC3CCCC3)c3c(-c4ccc5nc(C)oc5c4)c[nH]c3n2)c(OC)c1 | 7.7

same assay, conditions: second compound 1 µM; first compound 0.000316 µM; stronger effect = lower value

SMILES | viability, T/C [%]
Cn1ncnc1[C@H]1c2n[nH]c(=O)c3cc(F)cc(c23)N[C@@H]1c1ccc(F)cc1 + CN1CCN(c2cc(C(=O)Nc3cc4cc(-c5cnn(C)c5)ccc4cn3)ccn2)CC1 | 2.81

same assay, conditions: second compound 1 µM; first compound 0.001 µM; stronger effect = lower value

SMILES | viability, T/C [%]
Cn1ncnc1[C@H]1c2n[nH]c(=O)c3cc(F)cc(c23)N[C@@H]1c1ccc(F)cc1 + CN1CCN(c2cc(C(=O)Nc3cc4cc(-c5cnn(C)c5)ccc4cn3)ccn2)CC1 | 0.25

same assay, conditions: second compound 1 µM; first compound 0.00316 µM; stronger effect = lower value

SMILES | viability, T/C [%]
Cn1ncnc1[C@H]1c2n[nH]c(=O)c3cc(F)cc(c23)N[C@@H]1c1ccc(F)cc1 + CN1CCN(c2cc(C(=O)Nc3cc4cc(-c5cnn(C)c5)ccc4cn3)ccn2)CC1 | 0.86

same assay, conditions: second compound 1 µM; first compound 0.01 µM; stronger effect = lower value

SMILES | viability, T/C [%]
Cn1ncnc1[C@H]1c2n[nH]c(=O)c3cc(F)cc(c23)N[C@@H]1c1ccc(F)cc1 + CN1CCN(c2cc(C(=O)Nc3cc4cc(-c5cnn(C)c5)ccc4cn3)ccn2)CC1 | 2.93

same assay, conditions: second compound 1 µM; first compound 0.0316 µM; stronger effect = lower value

SMILES | viability, T/C [%]
Nc1ccn(C2OC(CO)C(O)C2(F)F)c(=O)n1 (configuration not stated) + CNC(=O)c1ccc(Nc2nc(OC3CCCC3)c3c(-c4ccc5nc(C)oc5c4)c[nH]c3n2)c(OC)c1 | 9.1
O=c1[nH]cc(F)c(=O)[nH]1 + CNC(=O)c1ccc(Nc2nc(OC3CCCC3)c3c(-c4ccc5nc(C)oc5c4)c[nH]c3n2)c(OC)c1 | 30.9
Nc1ccccc1NC(=O)c1ccc(CNC(=O)OCc2cccnc2)cc1 + CNC(=O)c1ccc(Nc2nc(OC3CCCC3)c3c(-c4ccc5nc(C)oc5c4)c[nH]c3n2)c(OC)c1 | 37.9
Cn1ncnc1[C@H]1c2n[nH]c(=O)c3cc(F)cc(c23)N[C@@H]1c1ccc(F)cc1 + CN1CCN(c2cc(C(=O)Nc3cc4cc(-c5cnn(C)c5)ccc4cn3)ccn2)CC1 | 1.61
CC(Nc1ccc2c(c1)OCCn1cc(N3C(=O)OCC3C(F)F)nc1-2)C(N)=O (configuration not stated) + CNC(=O)c1ccc(Nc2nc(OC3CCCC3)c3c(-c4ccc5nc(C)oc5c4)c[nH]c3n2)c(OC)c1 | 20.6

same assay, conditions: second compound 1 µM; first compound 0.1 µM; stronger effect = lower value

SMILES | viability, T/C [%]
Nc1ccn(C2OC(CO)C(O)C2(F)F)c(=O)n1 (configuration not stated) + CNC(=O)c1ccc(Nc2nc(OC3CCCC3)c3c(-c4ccc5nc(C)oc5c4)c[nH]c3n2)c(OC)c1 | 8.33
O=c1[nH]cc(F)c(=O)[nH]1 + CNC(=O)c1ccc(Nc2nc(OC3CCCC3)c3c(-c4ccc5nc(C)oc5c4)c[nH]c3n2)c(OC)c1 | 29.4
Nc1ccccc1NC(=O)c1ccc(CNC(=O)OCc2cccnc2)cc1 + CNC(=O)c1ccc(Nc2nc(OC3CCCC3)c3c(-c4ccc5nc(C)oc5c4)c[nH]c3n2)c(OC)c1 | 38.8
Cn1ncnc1[C@H]1c2n[nH]c(=O)c3cc(F)cc(c23)N[C@@H]1c1ccc(F)cc1 + CN1CCN(c2cc(C(=O)Nc3cc4cc(-c5cnn(C)c5)ccc4cn3)ccn2)CC1 | 0.53
CC(Nc1ccc2c(c1)OCCn1cc(N3C(=O)OCC3C(F)F)nc1-2)C(N)=O (configuration not stated) + CNC(=O)c1ccc(Nc2nc(OC3CCCC3)c3c(-c4ccc5nc(C)oc5c4)c[nH]c3n2)c(OC)c1 | 16.4

same assay, conditions: second compound 1 µM; first compound 0.316 µM; stronger effect = lower value

SMILES | viability, T/C [%]
Nc1ccn(C2OC(CO)C(O)C2(F)F)c(=O)n1 (configuration not stated) + CNC(=O)c1ccc(Nc2nc(OC3CCCC3)c3c(-c4ccc5nc(C)oc5c4)c[nH]c3n2)c(OC)c1 | 8.5
O=c1[nH]cc(F)c(=O)[nH]1 + CNC(=O)c1ccc(Nc2nc(OC3CCCC3)c3c(-c4ccc5nc(C)oc5c4)c[nH]c3n2)c(OC)c1 | 28.1
Nc1ccccc1NC(=O)c1ccc(CNC(=O)OCc2cccnc2)cc1 + CNC(=O)c1ccc(Nc2nc(OC3CCCC3)c3c(-c4ccc5nc(C)oc5c4)c[nH]c3n2)c(OC)c1 | 47.7
CC(Nc1ccc2c(c1)OCCn1cc(N3C(=O)OCC3C(F)F)nc1-2)C(N)=O (configuration not stated) + CNC(=O)c1ccc(Nc2nc(OC3CCCC3)c3c(-c4ccc5nc(C)oc5c4)c[nH]c3n2)c(OC)c1 | 12.4

same assay, conditions: second compound 1 µM; first compound 1 µM; stronger effect = lower value

SMILES | viability, T/C [%]
Nc1ccn(C2OC(CO)C(O)C2(F)F)c(=O)n1 (configuration not stated) + CNC(=O)c1ccc(Nc2nc(OC3CCCC3)c3c(-c4ccc5nc(C)oc5c4)c[nH]c3n2)c(OC)c1 | 8.25
O=c1[nH]cc(F)c(=O)[nH]1 + CNC(=O)c1ccc(Nc2nc(OC3CCCC3)c3c(-c4ccc5nc(C)oc5c4)c[nH]c3n2)c(OC)c1 | 28.6
Nc1ccccc1NC(=O)c1ccc(CNC(=O)OCc2cccnc2)cc1 + CNC(=O)c1ccc(Nc2nc(OC3CCCC3)c3c(-c4ccc5nc(C)oc5c4)c[nH]c3n2)c(OC)c1 | 54.1
CC(Nc1ccc2c(c1)OCCn1cc(N3C(=O)OCC3C(F)F)nc1-2)C(N)=O (configuration not stated) + CNC(=O)c1ccc(Nc2nc(OC3CCCC3)c3c(-c4ccc5nc(C)oc5c4)c[nH]c3n2)c(OC)c1 | 11.2

same assay, conditions: second compound 1 µM; first compound 3.16 µM; stronger effect = lower value

SMILES | viability, T/C [%]
Nc1ccn(C2OC(CO)C(O)C2(F)F)c(=O)n1 (configuration not stated) + CNC(=O)c1ccc(Nc2nc(OC3CCCC3)c3c(-c4ccc5nc(C)oc5c4)c[nH]c3n2)c(OC)c1 | 5.96
O=c1[nH]cc(F)c(=O)[nH]1 + CNC(=O)c1ccc(Nc2nc(OC3CCCC3)c3c(-c4ccc5nc(C)oc5c4)c[nH]c3n2)c(OC)c1 | 24.9
Nc1ccccc1NC(=O)c1ccc(CNC(=O)OCc2cccnc2)cc1 + CNC(=O)c1ccc(Nc2nc(OC3CCCC3)c3c(-c4ccc5nc(C)oc5c4)c[nH]c3n2)c(OC)c1 | 16.4
CC(Nc1ccc2c(c1)OCCn1cc(N3C(=O)OCC3C(F)F)nc1-2)C(N)=O (configuration not stated) + CNC(=O)c1ccc(Nc2nc(OC3CCCC3)c3c(-c4ccc5nc(C)oc5c4)c[nH]c3n2)c(OC)c1 | 7.78

same assay, conditions: second compound 1 µM; first compound 10 µM; stronger effect = lower value

SMILES | viability, T/C [%]
Nc1ccn(C2OC(CO)C(O)C2(F)F)c(=O)n1 (configuration not stated) + CNC(=O)c1ccc(Nc2nc(OC3CCCC3)c3c(-c4ccc5nc(C)oc5c4)c[nH]c3n2)c(OC)c1 | 6.34
O=c1[nH]cc(F)c(=O)[nH]1 + CNC(=O)c1ccc(Nc2nc(OC3CCCC3)c3c(-c4ccc5nc(C)oc5c4)c[nH]c3n2)c(OC)c1 | 15
Nc1ccccc1NC(=O)c1ccc(CNC(=O)OCc2cccnc2)cc1 + CNC(=O)c1ccc(Nc2nc(OC3CCCC3)c3c(-c4ccc5nc(C)oc5c4)c[nH]c3n2)c(OC)c1 | 1.52
CC(Nc1ccc2c(c1)OCCn1cc(N3C(=O)OCC3C(F)F)nc1-2)C(N)=O (configuration not stated) + CNC(=O)c1ccc(Nc2nc(OC3CCCC3)c3c(-c4ccc5nc(C)oc5c4)c[nH]c3n2)c(OC)c1 | 6.87

same assay, conditions: second compound 3.16 µM; first compound 0.000316 µM; stronger effect = lower value

SMILES | viability, T/C [%]
Cn1ncnc1[C@H]1c2n[nH]c(=O)c3cc(F)cc(c23)N[C@@H]1c1ccc(F)cc1 + CN1CCN(c2cc(C(=O)Nc3cc4cc(-c5cnn(C)c5)ccc4cn3)ccn2)CC1 | 2.49

same assay, conditions: second compound 3.16 µM; first compound 0.001 µM; stronger effect = lower value

SMILES | viability, T/C [%]
Cn1ncnc1[C@H]1c2n[nH]c(=O)c3cc(F)cc(c23)N[C@@H]1c1ccc(F)cc1 + CN1CCN(c2cc(C(=O)Nc3cc4cc(-c5cnn(C)c5)ccc4cn3)ccn2)CC1 | 0.69

same assay, conditions: second compound 3.16 µM; first compound 0.00316 µM; stronger effect = lower value

SMILES | viability, T/C [%]
Cn1ncnc1[C@H]1c2n[nH]c(=O)c3cc(F)cc(c23)N[C@@H]1c1ccc(F)cc1 + CN1CCN(c2cc(C(=O)Nc3cc4cc(-c5cnn(C)c5)ccc4cn3)ccn2)CC1 | 1.36

same assay, conditions: second compound 3.16 µM; first compound 0.01 µM; stronger effect = lower value

SMILES | viability, T/C [%]
Cn1ncnc1[C@H]1c2n[nH]c(=O)c3cc(F)cc(c23)N[C@@H]1c1ccc(F)cc1 + CN1CCN(c2cc(C(=O)Nc3cc4cc(-c5cnn(C)c5)ccc4cn3)ccn2)CC1 | 1.46

same assay, conditions: second compound 3.16 µM; first compound 0.0316 µM; stronger effect = lower value

SMILES | viability, T/C [%]
Nc1ccn(C2OC(CO)C(O)C2(F)F)c(=O)n1 (configuration not stated) + CNC(=O)c1ccc(Nc2nc(OC3CCCC3)c3c(-c4ccc5nc(C)oc5c4)c[nH]c3n2)c(OC)c1 | 8.6
O=c1[nH]cc(F)c(=O)[nH]1 + CNC(=O)c1ccc(Nc2nc(OC3CCCC3)c3c(-c4ccc5nc(C)oc5c4)c[nH]c3n2)c(OC)c1 | 27.6
Nc1ccccc1NC(=O)c1ccc(CNC(=O)OCc2cccnc2)cc1 + CNC(=O)c1ccc(Nc2nc(OC3CCCC3)c3c(-c4ccc5nc(C)oc5c4)c[nH]c3n2)c(OC)c1 | 33.7
